# In US8548786B2, “Neuronal avalanche assay” (priority 2005, dated 2013):
# Structures can show the parent of a compound that is named as a salt.
# Columns and labels:
# [1] = tested on: acute slices of rat medial prefrontal cortex (mPFC); test: Neuronal avalanche (NAS) assay, microelectrode array LFP recording in acute mPFC slices;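 note: 60-electrode array recordings, low-pass filtered at 200 Hz and sampled at 1 kHz, nLFPs detected below −3 SD of electrode noise, avalanches as runs of active bins between silent bins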
# Description: Continuous extracellular signals v(t) can be recorded between 0.1 Hz and 3000 Hz, low-pass filtered at 200 Hz (Butterfly-filter, Multichannel Systems), digitised at a rate of 1 kHz (Δt=1 ms) and stored. For each electrode k (k=[1, nelec], nelec=60), the electrode noise of v(t) can be estimated by calculating the mean and standard deviation (SD) of v(t) from the total duration of the recording, Ttot, which can range, for example, between 40-60 min. […] Negative LFP peaks (nLFPs) at electrode k can be detected by negative threshold crossing at −3 SD of electrode noise and can be characterized by the time and absolute amplitude of the negative LFP peak, A^k(ti), before v(t) returned to threshold. More precisely, at a given temporal resolution Δt, nLFPs at electrode k can be represented by a vector of length nmax, where nmax is an integer value for which Ttot=nmax·Δt. This vector can contain zeros, except for positions ti=i·Δt, iε[1, . . . , nmax,] with values A^k(ti) in μV.
# A neuronal avalanche is a sequence of consecutive time bins of width Δt with at least one nLFP, which is preceded and terminated by at least one time bin with no activity (FIG. 3A). The absence of activity for a period of Δt thus indicates the end of an avalanche. If the decision of whether an avalanche has ended is made too early (Δt too short), avalanches will be terminated prematurely; if the Δt chosen is too long, avalanches will be falsely concatenated. If avalanches did simply propagate like a wave, an approximation for Δt (Δtavg) could be obtained by averaging the time between one nLFP at one electrode and the next nLFP at neighbouring electrodes only. Because nLFPs in avalanches occur in irregular patterns across electrodes on the array, a pair wise approximation can be used in order to assess the average time that is required for nLFPs to propagate between electrodes.
# In order to calculate Δtavg, the distribution of time intervals T for successive nLFPs on the array can be obtained. Starting with the first nLFP, e.g. A^k(ti) on electrode k at time ti, the next occurrence of an nLFP on the array can be searched for, e.g. A^l(tj) on electrode l at time tj, and calculated the time interval Tm-Δt^k,l, where m=(tj−ti)/Δt. This process can be repeated for all occurrences of nLFPs on electrode k and for all electrodes. The resulting values can be combined into one density distribution P(TmΔt), which captures how often successive nLFPs occurred with a particular delay m·Δt on the array irrespective of their spatial location. Consequently, the average value of T provides an approximation for Δtavg, the average time to wait before making a decision whether an nLFP propagated on the array. However, this interval distribution is highly skewed, particularly when one compares the last nLFP with the first nLFP in successive avalanches that are separated by long times. In order to exclude time intervals from successive nLFPs that are barely correlated, a cut-off time τmax can be calculated for which the average crosscorrelation function (ccf) for pair wise electrode comparisons Rccf(τ) had decayed to negligible values. The ccf between electrodes k, l (Rccf^k,l(τ)) can be calculated as
# Because the exemplary maximal sampling rate was 1 kHz, the actual Δt^avg to calculate avalanches can be taken as the nearest multiple of Δt=1 ms. In short, after Δtavg was calculated for a particular network and experimental condition, the extracellular signals v(t) can be re-sampled at the new temporal resolution of Δtavg. Time and amplitude of nLFP peaks can be extracted as A^k(ti), where ti=i·Δtavg, iε[1, n′max] and Ttot=n′max·Δtavg. Avalanches can be determined on the downsampled data set at bin width Δtavg.
# Avalanche sizes can be calculated in two different ways (see also FIG. 3A).
# [2] = tested on: organotypic cortex-VTA cultures; test: γ-oscillations and neuronal avalanches in organotypic cortex-VTA co-cultures; assay type: cell-based, rat
# Description: Cortical extracellular neuronal activity was recorded in organotypic cortex-VTA cultures using 8×8 multielectrode arrays (FIG. 17A). The activity in the cortical tissue started as isolated single unit activity, which later formed bursts of multi-unit activity in the form of oscillations (FIG. 17B). […] The appearance of oscillatory activity ranged from closely placed isolated LFPs to frank sinusoidal waves lasting from 50 ms to 500 ms. […] LFP amplitudes varied from −10 μV to −1200 μV (mean=−38.2±3.4 μV) and varied between cultures −10.68±0.53 μV to −223.6±19.25 μV (mean high value).
# Organotypic co-cultures were prepared from the frontal cortex (EC) and ventral-tegmental area (VTA) isolated from postnatal day 1-2 (PND) old rats. The VTA slices were cut at a thickness of 500 μm and cortex at 350 μm. The culture was done with cortex placed on multielectrode arrays (Multichannel Systems, Reutlingen, Germany) with electrode diameter of 30 μm and interelectrode distance of 200 μm. Cultivation and recording was done in a sterile chamber on the microelectrode array as described above. The culture was kept within the incubator with the rocking movement (˜0.005 Hz) throughout the recording. Spontaneous extracellular signals were recorded at a sampling frequency of 4 kHz with 1 kHz low pass filtering continuously for an average of 4±1 hrs. The temperature inside incubator was maintained at 35±0.5° C.
# Neuronal oscillatory activity was analyzed by calculating the power spectrum from periods of prominent LFP activity, i.e. LFP bursts using a discrete Fast Fourier Transform in Matlab (Mathworks). Periods of prominent LFP activity were identified by negative threshold crossing at −3 SD from electrode noise. When calculating the average power spectrum for an activity period on the array, the duration for selecting activity periods was taken as the average duration of individual oscillatory activity in each recording session. While taking activity regions care was taken to avoid recalculation of spectra from the same time period in same electrode. The power spectrum of noise for each electrode was separately calculated from 20 separate recording regions where no activity was present and the power in the noise was subtracted from that in the signal. The selected signal region was filtered with a Hanning window (a cosine window defined by: w(k+1)=0.5*(1−cos(2*pi*(k/(n−1)))), k=0, 1, 2 . . . n−1) before calculating the power spectrum. The power spectrum of each activity period was calculated and averaged from all the active electrodes in each activity period. Then the power spectrum was averaged over the entire 4 hr recording.
# To test the hypothesis, that neuronal avalanches might persist in the presence of oscillatory activity, the signals from all channels were analyzed for LFPs occurring with a peak 3×SD above noise (FIG. 19). This yielded a raster with time of occurrence and peak amplitude of LFPs (FIGS. 19B,C). The data was binned at Δtavg obtained from cross correlation analysis. […] Plotting the probability of occurrence of avalanches of different sizes against avalanches in log-log coordinates of different sizes yielded a curve with slope α=−1.5 (FIGS. 19D,E; mean=−1.53±0.02, n=9).
# About 3 μl of the stock solution was added to the ˜600 μl of culture media in the multielectrode array chamber to reach a final concentration of 10 μM. […] The concentration of DMSO in the working solution was limited to 0.01%. Each addition of the drug was followed by 4 hours of continuous recording, after which the culture was washed by replacing the culture medium with 50% of conditioned media (collected from the same culture the day before drug application) and 50% of fresh, unconditioned medium, followed by 4-8 hrs of recording.
# [3] = tested on: organotypic cortex-VTA cultures; test: as above; assay type: cell-based, rat; remark: listed apart in the source
# [4] = tested on: organotypic cortex cultures; test: Neuronal avalanche assay in organotypic cortex slice cultures on microelectrode arrays; assay type: cell-based, rat
# Description: Organotypic cultures from slices of rat cortex were prepared in accordance with NIH guidelines. Coronal sections from rat brains (Sprague Dawley, Taconic Farms, Md., USA) at postnatal day 0-2 were cut at 350 μm thickness. A coronal slice section containing dorsal or dorsolateral cortex (˜1.5 mm deep and ˜2-3 mm wide) was positioned on a multi-electrode array (Multichannelsystems, Reutlingen, Germany). The array covered ˜50-70% of the cortical tissue with the bottom row aligned to infragranular layers and the upper rows extending beyond layer I. This arrangement allowed for the dorsal expansion of the cortical slice on the multielectrode array, which results from the development of superficial layers during the first weeks postnatal in rat cortex. The slices were attached to the pre-cleaned, poly-D-lysine coated multielectrode array-surface by coagulation with 15 μl chicken plasma and 15 μl of bovine thrombin (Sigma St. Louis, Mo., USA), after which cultures were grown at 35.5° C. in normal atmosphere in a culture medium consisting of 50% Basal Medium Eagle, 25% Hanks Balanced Salt Solution and 25% horse serum, 0.5% glucose, and 0.5 mM L-glutamine (all Gibco, Grand Island, N.Y., USA). Photographs taken at 1-3 DIV and after recording sessions confirmed the position of recording electrodes in the cortical tissue and organotypic cortex slice culture.
# A custom-built incubator was used in order to allow for long-term pharmacological experiments and repetitive, sterile recording sessions at different developmental stages under identical recording and culturing conditions. The chamber design and preparation of the multielectrode array for recordings has been described in more detail previously. In short, each multielectrode array consisted of a square glass plate (5×5 cm, 1 mm thickness) with a square array of 60 microelectrodes made of titanium nitride (8×8 grid with the corners missing) at its center (Egert et al., 1998). Titanium nitride electrodes were flat and disk-shaped with a diameter of 30 μm, an inter electrode spacing of 200 μm, and were attached to gold leads that ended at the edge of the glass square and served as contacts for the amplifier head stage. A circular glass well (˜10 mm diameter) with a Teflon cap was centered and cured to the glass plate by Sylgard® functioned as a tight-sealed, sterile culture chamber.
# Multielectrode arrays were placed onto storage trays inside the incubator and gently rocked. The temperature inside incubator was maintained at 35±0.5° C. For optimal culture survival and culture growth a rocking trajectory was used that approximated a sinusoidal function (˜400 s cycle time) with brief halts of ˜10 s at the steepest angle before reversing directions. At the points of direction reversal, cultures were exposed to the inner chamber atmosphere. […] After 3 and 27 days in vitro (DIV), […] of mitosis inhibitor was added for 24 hr ([…]; calculated to final concentration; all Sigma). Medium was changed every 3-5 days. No antibiotics were used throughout cultivation and recording periods.
# For recordings, individual multielectrode arrays were placed into the recording head stage (MultiChannelSystems, Inc.), which was affixed to a second tray within the incubator and had the exact same motion as the primary storage tray. This allowed recording in culture medium under conditions identical to growth conditions. The exchange between recording and storage location for each multielectrode array took few seconds and was done without interruption of the rocking cycle. Activity occurred spontaneously in organotypic cortex cultures and was recorded up to 5 hrs giving rise to >10,000 avalanches per network.
# Overall, negative local field potentials (nLFPs) occurred at 82±5% of the electrodes in the acute slices and 88±5% of the electrodes in cultures. Data was sampled at 1 kHz and low pass filtered at 50 Hz. […]
# [5] = similar for each dopamine concentration, + 3 μM NMDA, n=26 slices
molecule,measurement,setting,value
CN1[C@@H]2CC[C@H]1C[C@@H](OC(=O)C(CO)c1ccccc1)C2 (stereo partly drawn) [atropine],neuronal avalanche induction with muscarinergic receptors blocked,[1]; atropine 10 μM + 3 μM NMDA + 3 μM SKF38393,did not block neuronal avalanche induction
same,power law slope αLFP with muscarinergic receptors blocked,"[1]; atropine 10 μM + 3 μM NMDA + 3 μM SKF38393, n=6",−1.696±0.045
"CN[C@H](CC(=O)O)C(=O)O [NMDA, N-Methyl-D-Aspartate]",nLFP and avalanche activity induced by NMDA alone,"[1]; 3 μM NMDA alone in the presence of 10 μM SCH23390, n=7",negligible nLFP and avalanche activity
CCN1CCCC1CNC(=O)c1cc(S(N)(=O)=O)ccc1OC (stereo not drawn) [sulpiride],change in γ frequency,[2]; sulpiride 10 μM,without a change in frequency
same,change of power of γ-activity,"[2]; sulpiride 10 μM, n=5",doubled
same,slope α of avalanche size distribution,"[2]; sulpiride 10 μM, n=5",−1.37±0.02
"CN1CCN(C2=Nc3cc(Cl)ccc3Nc3ccccc32)CC1 [Clozapine, clozapine]",network state of induced avalanche dynamics,[1]; clozapine 100 nM,epileptic
same,slope αele of avalanche size distribution,[1]; clozapine 100 nM,−2.07±0.08
same,ΔPmax (likelihood of large avalanches beyond linear regression),[1]; clozapine 100 nM,0.006
same,total duration of induced LFP activity,[1]; clozapine 100 nM bath-applied,~40 min
same,initial slope αLFP of avalanche size distribution,"[1]; clozapine 100 nM, Δtavg=1 ms, range 5-60 μV",−2.00±0.13
NCCc1ccc(O)c(O)c1 [dopamine],maximal area sele within the power law regime,[1]; 30 μM dopamine + 3 μM NMDA,~18 electrodes
same,optimal bin width Δtavg,[1]; 30 μM dopamine + 3 μM NMDA,2.7 ± 0.2 ms
same,slope αLFP of avalanche size distribution (summed nLFP amplitudes),"[1]; 30 μM dopamine + 3 μM NMDA bath-applied, sLFP=6-300 μV",−1.50±0.03
same,τmax for which Rccf dropped below 10^−4,"[1]; 30 μM dopamine + 3 μM NMDA, all n=6 slices",60 ms
same,cortical layer localisation of induced avalanche activity,"[1]; 30 μM dopamine + 3 μM NMDA, cortical depth 200-900 μm",strongest in superficial layers II/III
same,propagation velocity for nLFPs on the array,"[1]; 30 μM dopamine + 3 μM NMDA, inter-electrode distance 200 μm",~74 mm/s
same,slope αele of avalanche size distribution (number of active electrodes),"[1]; 30 μM dopamine + 3 μM NMDA, sele=1-18 electrodes",−1.47±0.03
same,increase in likelihood of family recurrence beyond chance level,[1]; 30 μM dopamine in the presence of 3 μM NMDA,~500%
same,"Δtavg, average for all dopamine concentrations","[1]; all dopamine concentrations tested + 3 μM NMDA, n=26 experiments",2.7 ± 0.1 ms
same,"mean nLFP peak, rate of nLFPs per electrode and total activity Atot, dependence on dopamine concentration","[1]; dopamine + 3 μM NMDA, inverted-U profile",maximal at moderate concentration of dopamine (30 μM)
same,slope α of cluster size distribution,"[1]; dopamine concentrations lower or higher than 30 μM, + 3 μM NMDA",~−2
same,duration of spontaneous activity,[1]; [5],43 ± 3 min
same,number of active electrodes,[1]; [5],33±4 electrodes
picrotoxin,average burst duration in the network,"[2]; picrotoxin, n=3 cultures",increases the average burst duration
same,power in the δ/θ-frequency range,"[2]; picrotoxin, single culture",increases the power in the δ/θ-frequency range
same,nLFP and avalanche activity after adding GABAA antagonist,[1]; 10 μM picrotoxin added to activity sustained by 30 μM dopamine + 3 μM NMDA,ceased
same,maximal time difference between correlated electrodes τmax,[1]; picrotoxin alone 10 μM,30.5±7.2
same,Δtavg,[1]; picrotoxin alone 10 μM,2.3±0.2
same,avalanche rate,"[1]; picrotoxin alone 10 μM, n=6",0.18±0.02 Hz
same,duration of spontaneous activity,"[1]; picrotoxin alone 10 μM, n=6",28 ± 2 min
same,nLFP rate,"[1]; picrotoxin alone 10 μM, n=6",0.01±0.001 Hz
same,total activity Atot,"[1]; picrotoxin alone 10 μM, n=6",5033±719 μV
same,initial slope αLFP of disinhibited activity,"[1]; picrotoxin alone 10 μM, sLFP=15-85",−1.9±0.08
same,initial slope αele of disinhibited activity,"[1]; picrotoxin alone 10 μM, sele=1-5",−1.97±0.02
same,spontaneous avalanche induction with co-applied GABAA antagonist,"[1]; picrotoxin co-applied with 3 μM NMDA and 3 μM SKF38393, n=6",prevented spontaneous avalanches induction altogether
same,shape of avalanche size distribution,[3]; picrotoxin 5 μM,almost bimodal
same,reduction of γ-oscillations,[3]; picrotoxin 5 μM bath-applied,more than 50%
same,initial slope α of avalanche size distribution,[4]; picrotoxin 3 μM (FIG. 24C legend),~−2
same,"over-representation of large avalanches, epileptic vs sub-critical state",[4]; picrotoxin 3 μM vs DNQX 3 μM,~10 times
same,decrease in average rate of spontaneous nLFPs,"[4]; picrotoxin 5 μM, N=4 cultures",80±23%
same,increase of deviations in nLFP waveforms relative to initial nLFP,"[4]; picrotoxin 5 μM, first time step",~3.5 fold
same,probability of nLFP being larger than nLFP in the preceding time step,"[4]; picrotoxin 5 μM, normal conditions 0.5",~0.58
same,increase of deviations in nLFP waveforms relative to initial nLFP,"[4]; picrotoxin 5 μM, within 8 time steps",~6 fold
same,initial slope α of avalanche size distribution,[4]; picrotoxin 2-3 μM,−1.8
same,shape of avalanche size distribution,[4]; picrotoxin 2-3 μM,bimodal distribution
O=[N+]([O-])c1cc2nc(O)c(O)nc2cc1[N+](=O)[O-] [DNQX],slope α of avalanche size distribution,"[4]; DNQX 3 μM bath-applied, 6 cortical cultures, control −1.5",~−2
"CN1CCc2cc(Cl)c(O)cc2[C@@H](c2ccccc2)C1 (racemic) [SCH23390, R(±)-7-chloro-8-hydroxy-3-methyl-1-phenyl-2,3,4,5-tetrahydro-1H-3-benzazepine hydrochloride]",shift of peak frequency in the high frequency band from its original value,[2]; SCH23390 10 μM,59±1%
same,reduction of power of dominant frequencies between 40-120 Hz,"[2]; SCH23390 10 μM, n=5",more than 50%
same,slope α of avalanche size distribution,"[2]; SCH23390 10 μM, n=5",−1.60±0.04
same,slope αLFP for washout of antagonist,"[1]; after washout of 10 μM SCH23390, 30 μM dopamine + 3 μM NMDA",−1.55±0.06
